Structures are written as SMILES. “Also recorded” adds a separate entry of the source.

What all share (type): cell-based
The test system of assay [1] is caspase 3/7 activity in Namalwa cells. As to the kind of experiment: Caspase-Glo 3/7 assay, Namalwa cells. The conditions noted are these: 24 h, co-treated with VHL ligand VHL298. The protocol: All cell lines were purchased from ATCC or DSMZ and grown at 37° C. with 5% C02. […]
(§1) Caspase-glo® assay (Promega) was conducted following the manufacturer's recommendations. […] After a 24 h incubation, 100 μl of the […] substrate was added per well and luminescence was read on a Spectramax M5 (Molecular Devices).
Namalwa cells (5×104) were treated for 24 hours with the compounds solubilized in DMSO. FIG. 57 is a bar graph depiction of fold increase of apoptosis assessed via caspase 3/7 activity using the Caspase-Glo assay (Promega) described above.
(§2) Molm-13 (FIG. 76A) or Namalwa (FIG. 76B) cells (5×104) were treated for 24 hours with the compounds solubilized in DMSO in white 96 well plates (10 nM-10 μM solubilized in DMSO). FIG. 76 is a bar graph depiction of fold increase of apoptosis assessed via caspase 3/7 activity using the Caspase-Glo assay (Promega) described above.

For assay [2], the system named is caspase 3/7 activity in MOLM13 cells. As to the kind of experiment: Caspase-Glo 3/7 assay, Molm-13 cells. The conditions noted are these: 24 h, co-treated with VHL ligand VHL298. The protocol: (§3) All cell lines were purchased from ATCC or DSMZ and grown at 37° C. with 5% C02. Human HeLa cells were cultured in complete growth medium (Dulbecco's modified Eagle's medium (DMEM) supplemented with 10% FBS); MCF7 cells were cultured in complete growth medium (Dulbecco's modified Eagle's medium (DMEM) supplemented with 10% FBS and 0.01 mg/ml human recombinant insulin (Sigma Aldrich); Namalwa and MOLM-13 cells were cultured in complete growth medium (RPMI 1640 medium supplemented with 10% FBS); MV-4-11 were cultured in complete growth medium (Iscove's Modified Dulbecco's medium, supplemented with 10% FBS); HCT116 cells were cultured in complete growth medium (McCoy's 5a Medium supplemented with 10% FBS). […]
as §1, §2

In a further assay the test system is Molm-13 cells. The assay can be described thus: CellTiter-Glo cell viability, Molm-13 cells. How it is done:
as §3
(§4) CellTiter-Glo® 2.0 Cell Viability Assay (Promega) was carried out following the manufacturer's recommendations. […] After a 72 h incubation, 100 ul of the CellTiter-Glo® substrate was added per well and luminescence was read on a Spectramax M5 (Molecular Devices). […]
Molm-13 cells (1×104) were treated for 24 (FIG. 77A) or 72 (FIG. 77B) hours were treated in white 96 well plates with the compounds (10 nM-10 μM solubilized in DMSO). After indicated times cell viability was assessed using the CellTiter-Glo® Luminescent Cell Viability Assay (Promega) and the signal detected on a SpectraMax M5 (Molecular Devices).
In general terms: Cellular ATP, detected with luciferase, serves as a proxy for viable cell number.

Assay [3] addresses T1, BRD4 (Homo sapiens, UniProt O60885). As to the kind of experiment: CURE-PRO-mediated BRD4 degradation in MCF7 cells with VHL ligands, WES (ProteinSimple). Also noted: endogenous in cells; host or cells: HeLa, MCF7 or HCT116. How it is done: as §3, with “FBS). For cellular degradation of BRD4 studies, cells were seeded in a 12-well plate at 70-80% confluency, allowed to attach overnight, and incubated with the indicated compounds for the indicated time.” for “FBS).”
WES Simple analysis was performed on WES system (ProteinSimple-Biotechne) according to the manufacturer's instructions. Total protein concentrations of cell lysates were determined by the Pierce BCA kit (Thermo Fisher). […]
MCF7 cells (3×10^6) were treated for 4-24 hours continually (FIG. 72), or treated for 4 h, washed and incubated for a further 4-24 h with the compounds solubilized in DMSO. […] The total protein concentration was quantified by the BCA method (ThermoFisher Sciences). […]

The target in assay [4] is T1, BRD4. As to the kind of experiment: Summary of E3 ligase directed degradation of BRD4, estimated from Western Blot or WES (Tables 1-6). Also noted: endogenous in cells; host or cells: HeLa, MCF7 or HCT116. A digest of the protocol: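 HeLa, MCF7 or HCT116 cells treated 24 h with compounds in DMSO, lysed in RIPA buffer; BRD4 levels read by Western blot (ECL detection) or capillary WES with HRP detection. Check mark denotes 30% to 70% or higher protein degradation.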

A further assay relates to Namalwa cells. As to the kind of experiment: CellTiter-Glo cell viability, Namalwa cells. The conditions noted are these: 72 h, 10 nM-10 μM, co-dosed 1:1 with CRBN ligand 8047, compared to monomer alone. How it is done:
as §3, with “FBS). For cellular degradation of BRD4 studies, cells were seeded in a 12-well plate at 70-80% confluency, allowed to attach overnight, and incubated with the indicated compounds for the indicated time.” for “FBS).”
as §4
Namalwa cells (1×104) were treated for 72 hours with the compounds solubilized in DMSO. […] Cellular viability was determined using the CellTiter-Glo® Luminescent Cell Viability Assay (Promega) described above. […]

Assay [5] addresses T1, BRD4. The assay can be described thus: CURE-PRO-mediated BRD4 degradation in HeLa cells, Western blot. Also noted: endogenous in cells; host or cells: HeLa. The note with it: 24 h. The protocol:
(§5) All cell lines were purchased from ATCC or DSMZ and grown at 37° C. with 5% C02. Human HeLa cells were cultured in complete growth medium (Dulbecco's modified Eagle's medium (DMEM) supplemented with 10% FBS); MCF7 cells were cultured in complete growth medium (Dulbecco's modified Eagle's medium (DMEM) supplemented with 10% FBS and 0.01 mg/ml human recombinant insulin (Sigma Aldrich); Namalwa and MOLM-13 cells were cultured in complete growth medium (RPMI 1640 medium supplemented with 10% FBS); MV-4-11 were cultured in complete growth medium (Iscove's Modified Dulbecco's medium, supplemented with 10% FBS); HCT116 cells were cultured in complete growth medium (McCoy's 5a Medium supplemented with 10% FBS). For cellular degradation of BRD4 studies, cells were seeded in a 12-well plate at 70-80% confluency, allowed to attach overnight, and incubated with the indicated compounds for the indicated time. When indicated, a 15-minute pretreatment with 10 μM pomalidomide, 10 μM VHL298, 10 μM Nutlin3a, 1 μM MG-132 or 1 μM Carfilzomib was performed before the addition of CURE-PROs. For washout studies, after CURE-PRO treatment, media was aspirated and incubated with complete medium for the indicated time before lysis.
(§6) Anti-BRD4 (13440, 1:1,000 dilution for Western Blot and 1:25 dilution for ProteinSimple); Anti-BRD2 (5848 1:1,000 dilution for Western Blot and 1:25 dilution for ProteinSimple); β-Actin (3700, 1:2,000 dilution for Western Blot), β-Actin (4970, 1:50 dilution for ProteinSimple) anti-mouse IgG-HRP, and anti-rabbit IgG-HRP antibodies were purchased Cell Signaling Technology. Anti-GAPDH (600-401-A33, 1:100 dilution for ProteinSimple) was purchased from Rockland Immunochemicals, Inc. Anti-BRD3 (sc-81202, 1:200 dilution for Western Blot) was purchased from Santa Cruz Biotechnology.
HeLa, MCF7, or HCT116 cells (2.5-3×10^6) were treated for 24 hours with the indicated compounds solubilized in DMSO. The cells were washed in ice-cold PBS and were then lysed in RIPA lysis buffer (150 mM NaCl, 5 mM EDTA, 1% NP-40, 0.5% sodium deoxycholate, 0.1% SDS, 50 mM Tris, pH 8.0) with Roche protease inhibitor complete cocktail and phosphatase inhibitors (10 mM sodium fluoride, 10 mM sodium pyrophosphate, 1 mM sodium orthovanadate and 20 mM β-glycerophosphate). The total protein concentrations were determined by Bradford Protein Assay and 10-20 μg of protein was loaded onto 4-15% Tris-Glycine gradient gels (Biorad). After standard gel electrophoresis, the separated proteins were transferred to PVDF membrane by wet transfer. The immunoblots were then blocked for 1 hour in 5% skim milk in TBST or 5% BSA in TBST, according to manufacturer's instructions, before an overnight incubation at 4° C. with indicated antibodies and membranes. Membranes were then incubated with the appropriate horseradish peroxidase-conjugated secondary antibodies (1:5,000 dilution) for 1 h at room temperature and the bands were visualized using the Clarity Max Western ECL Substrate (Biorad) and the ChemiDoc Imaging System (Biorad). Signal was detected with ECL Western Blotting Substrate (Pierce) and X-ray film processed with a Konica SRX-101 X-ray film processor or captured by Bio-Rad's Chemidoc Imaging system.
HeLa cells (2.5×10^6) were treated for 24 hours with the sample compounds solubilized in DMSO. Compounds were added at 1-10 μM each. Standardized protein samples were electrophoresed and imaged as described in the immunoblotting description above. FIGS. 6-18 depicts the CURE-PRO-mediated BRD4 degradation for BRD monomers (JQ1 derivatives comprising of catechol linkers), and CRBN ligands, 8048 and 8049 (pomalidomide derivatives comprising boronic acid linkers) combined in a 1:1 ratio.
HeLa cells (2.5×10^6) were treated for 24 hours with the compounds solubilized in DMSO. The compounds were added at 10 μM each. Standardized protein samples were electrophoresed and imaged as described in the immunoblotting section above. […]

The target of assay [6] is T1, BRD4. The assay can be described thus: CURE-PRO-mediated BRD4 degradation in HeLa cells, WES capillary electrophoresis (ProteinSimple). Also noted: endogenous in cells; host or cells: HeLa. The note with it: 4-24 h, 10 μM each, co-dosed with CRBN ligand 8047, washed after 4 h. How it is done:
as §5, §6
WES Simple analysis was performed on WES system (ProteinSimple-Biotechne) according to the manufacturer's instructions. Total protein concentrations of cell lysates were determined by the Pierce BCA kit (Thermo Fisher). 3 μL of 0.3 μg/uL of the protein lysate was loaded onto a 12- to 230-kDa WES assay plate (ProteinSimple) where 300 nL sample was withdrawn through a capillary, subjected to electrophoretic separation of proteins by size, and followed by the simultaneous, HRP-based detection of proteins using the Anti-Rabbit Detection Module (Proteinsimple: #DM-001). The electropherograms were checked then the automatic peak detection was manually corrected if it was required.
HeLa cells (2.5×10^6) were treated for 4-24 hours with the compounds solubilized in DMSO. After 4 hours, indicated points were washed and cells were left in full growth media. Compounds were added at 10 μM each. […]

Take `CCNC(=O)C[C@@H]1N=C(c2ccc(Cl)cc2)c2cc(B(O)O)ccc2-n2c(C)nnc21` [BRD-E50, ((4S)-6-(4-chlorophenyl)-4-(2-(ethylamino)-2-oxoethyl)-1-methyl-4H-benzo[f][1,2,4]triazolo[4,3-a] [1,4]diazepin-8-yl)boronic acid]: the “caspase 3/7 activity” value in assay [1] and in assay [2] was “does not increase caspase activity” in each case. Besides, the “loss of cell viability (CellTiter-Glo)” value with Molm-13 cells (24 h and 72 h, 10 nM-10 μM, co-dosed 1:1 with VHL ligand 8305) is given as “marked loss in cell viability; also recorded: a greater loss of cell viability”. Besides, the “cell viability (CellTiter-Glo)” value in the assay with Molm-13 cells (co-treated with VHL ligand VHL298) is on record as “decreases levels of cell viability to similar levels of BRD-E50 treatment alone”. Moreover, the “BRD4 degradation after pre-incubation with VHL298” value at BRD4 [3] (10 μM each with VHL ligand 8305, VHL298 preincubated at equimolar concentration) was “attenuates CURE-PRO mediated BRD4 degradation; also recorded: No degradation is noted; also recorded: inhibited CURE-PRO mediated degradation; also recorded: inhibits the degradation of BRD4”. The BRD4 degradation result at BRD4 [3] (10 μM each, 1:1 with VHL ligand 8305, 4-24 h, with washout where stated) is listed as “directs degradation of BRD4 as early as 4 h, with sustained degradation 24 h after wash out; also recorded: marked BRD4 degradation after 4 h with sustained degradation for up to 8 h after drugs are washed out”. The “Degradation of BRD4, combination with VHL ligand [drawing 442]” value at BRD4 [4] (Table 3, aromatic 1,2-diol-containing VHL ligand drawn as drawing 442 (by the text apparently 8305)) is “✓ (A black check mark indicates efficacy of 30% to 70% or higher protein degradation)”.

On to `CCNC(=O)C[C@@H]1N=C(c2ccc(Cl)cc2)c2cc(-c3cccc(B(O)O)c3)ccc2-n2c(C)nnc21` [BRD-E72, (3-((4S)-6-(4-chlorophenyl)-4-(2-(ethylamino)-2-oxoethyl)-1-methyl-4H-benzo[f][1,2,4]triazolo[4,3-a][1,4]diazepin-8-yl)phenyl)boronic acid], for which the “loss of cell viability (CellTiter-Glo)” value in the assay on Namalwa cells is on record as “the dose-response curves shifted towards the left; also recorded: marked loss in cell viability”. Further, at BRD4 [5] (10 μM), the “BRD4 degradation with pomalidomide and the BRD ligand (no 8047)” value is listed as “failed to induce BRD4 degradation”. For the same molecule, on BRD4 [5] (10 μM, 1:1 with CRBN ligand 8047, pomalidomide preincubated 15 min at equimolar concentration), the “BRD4 degradation after preincubation with pomalidomide” value is on record as “inhibition of CURE-PRO-mediated BRD4 degradation”. Further, at BRD4 [5] (BRD ligand (monomer) alone), the BRD4 degradation result is on record as “no change in expression is observed”. Also, on BRD4 [6], the “BRD4 degradation, time dependence and washout” value was “marked BRD4 degradation after 4 h with sustained degradation for up to 8 h after drugs are washed out”. Also, on BRD4 [4] (Table 1, CRBN ligand drawn as drawing 421 (by the text apparently 8047)), the “Degradation of BRD4, combination with CRBN ligand [drawing 421]” value was “✓ (A black check mark indicates efficacy of 30% to 70% or higher protein degradation)”.

The values are drawn from patent US20240000950A1, “THERAPEUTIC CURE-PRO COMPOUNDS FOR TARGETED DEGRADATION OF BET DOMAIN PROTEINS, AND METHODS OF MAKING AND USING THEM” (CORNELL UNIVERSITY, priority 2020, published 2024).
